Source: paper PMC11457795 (Cell chemical biology, 2024)

Molecular target: PfMAGL (Plasmodium falciparum, UniProt Q8IJ22)
Experiment: fluorogenic 4-methylumbelliferyl caprylate hydrolysis assay, […] min preincubation
Assay type: biochemical

With `C#CCCCCP(=O)(OCC)Oc1ccc(S(=O)(=O)F)cc1` (racemic) [compound 2, ethyl (4-(fluorosulfonyl)phenyl) hex-5-yn-1-ylphosphonate] the IC50 was 20 nM.
